Laboratory results taken from ChEMBL document CHEMBL4483862, “Open-source discovery of chemical leads for next-generation chemoprotective antimalarials” (2018).

Test system: Plasmodium berghei
Experiment: Luciferase/luciferin-expressing antifolate-resistant parasites were used to infect a culture of HepG2 cells that were pre-incubated with compounds. Infected hepatocytes emit light due to the luciferase reaction. Assay results are presented as the percent inhibition of light emission compared to control. […]
Type: functional
Conditions: sporozoite; for IC90: read-out: LUCIFERASE INFECTION ASSAY - IC90
[1] = read-out: LUCIFERASE INFECTION ASSAY - IC50

SMILES	IC90 [µM]	IC50 [1] [µM]	also measured
NS(=O)(=O)c1ccc(S(=O)(=O)N2CCCN(Cc3ccc(C(F)(F)F)cc3)CC2)cc1	> 10		IC50 (HEPG2TOX_HILL_SLOPE 4.06, HEPG2TOX_R_SQUARED 0.95, PBLUC_HILL_SLOPE 2.74, PBLUC_R_SQUARED 0.121, read-out: LUCIFERASE INFECTION ASSAY - IC50): 6.92 µM
O=C(NNC(=S)Nc1cccc(C(F)(F)F)c1)c1ccc(OC(F)(F)F)cc1	> 7.8	> 7.8	
O=C(Nc1ccc(N2CCCCC2)c(C(F)(F)F)c1)c1ccc(-n2nncc2-c2ccc(Cl)cc2)cc1	> 10		IC50 (PBLUC_HILL_SLOPE 1.22, PBLUC_R_SQUARED 0.481, read-out: LUCIFERASE INFECTION ASSAY - IC50): 4.69 µM
CCN(CC)CCNc1cc(-c2cccs2)nc2ccccc12	> 10.1		IC50 (PBLUC_HILL_SLOPE 1.7, PBLUC_R_SQUARED 0.474, read-out: LUCIFERASE INFECTION ASSAY - IC50): 3.96 µM
O=S(=O)(Nc1ccc(Cl)cc1)c1ccc2nc(-c3ccccn3)[nH]c2c1	8.29		IC50 (HEPG2TOX_HILL_SLOPE 9.44, HEPG2TOX_R_SQUARED 0.935, PBLUC_HILL_SLOPE 6.04, PBLUC_R_SQUARED 0.808, read-out: LUCIFERASE INFECTION ASSAY - IC50): 5.77 µM
COc1cc(C(=O)c2c(C)c(CCC#N)n3ccccc23)cc(OC)c1OC	6.92	2	
COc1cccc(N2C(C)=CC(=C(C#N)c3nc4ccccc4s3)C=C2C)c1	> 10		IC50 (FFLUC_HILL_SLOPE 12.5, FFLUC_R_SQUARED 0.607, HEPG2TOX_HILL_SLOPE 3.97, HEPG2TOX_R_SQUARED 0.941, PBLUC_HILL_SLOPE 8.86, PBLUC_R_SQUARED 0.0114, read-out: LUCIFERASE INFECTION ASSAY - IC50): > 10 µM
Nc1cc(C(F)(F)F)ccc1Oc1ccc(Cl)cc1Cl	> 10.2	> 10.2	
Cc1onc(-c2c(Cl)cccc2Cl)c1-c1csc(-c2ccccc2Cl)n1	6.63		IC50 (FFLUC_HILL_SLOPE 1.25, FFLUC_R_SQUARED 0.188, HEPG2TOX_HILL_SLOPE 2.28, HEPG2TOX_R_SQUARED 0.946, PBLUC_HILL_SLOPE 2.98, PBLUC_R_SQUARED 0.455, read-out: LUCIFERASE INFECTION ASSAY - IC50): 3.17 µM
Cn1cccc1C(=O)N1CC2ON=C(c3ccc(F)cc3)C2C1 (centres undefined)	> 10	> 10	
COc1ccc(CNc2ncnc3scc(-c4ccccc4)c23)cc1OC	9.56		IC50 (HEPG2TOX_HILL_SLOPE 0.633, HEPG2TOX_R_SQUARED 0.925, PBLUC_HILL_SLOPE 1.59, PBLUC_R_SQUARED 0.666, read-out: LUCIFERASE INFECTION ASSAY - IC50): 2.4 µM
CC(C)c1ccccc1NC(=O)Nc1nc(C(N)Cc2ccc(Cl)cc2)cs1 (centres undefined)	> 7.95		IC50 (PBLUC_HILL_SLOPE 4.88, PBLUC_R_SQUARED 0.323, read-out: LUCIFERASE INFECTION ASSAY - IC50): 5.13 µM
Cc1ccccc1/N=C1\SCC(C)(C)N1C(=O)c1ccccc1OCc1ccccc1	> 10	> 10	
CC(C)NC(=O)c1c(NC(=O)c2cc(F)cc(F)c2)nc2ccccn12	1.12		IC50 (FFLUC_HILL_SLOPE 17.9, FFLUC_R_SQUARED 0.386, HEPG2TOX_HILL_SLOPE 1.01, HEPG2TOX_R_SQUARED 0.782, PBLUC_HILL_SLOPE 15.7, PBLUC_R_SQUARED 0.648, read-out: LUCIFERASE INFECTION ASSAY - IC50): 0.969 µM
COC(=O)c1ccc(C(=O)OC)c(N2C(=O)C=CC2=O)c1	> 11.4		IC50 (FFLUC_HILL_SLOPE 12.8, FFLUC_R_SQUARED 0.0109, PBLUC_HILL_SLOPE 0.51, PBLUC_R_SQUARED 0.565, read-out: LUCIFERASE INFECTION ASSAY - IC50): 0.503 µM
OCc1ccc(-c2cn3c(-c4ccc(Oc5ccccc5)cc4)cnc3cn2)cc1	> 8.39		IC50 (PBLUC_HILL_SLOPE 2.74, PBLUC_R_SQUARED 0.523, read-out: LUCIFERASE INFECTION ASSAY - IC50): 5.32 µM
COc1ccc(N(CCCN2C(=O)c3cccc4cccc(c34)C2=O)C(=O)c2ccccc2Cl)cc1	0.656		IC50 (HEPG2TOX_HILL_SLOPE 2.18, HEPG2TOX_R_SQUARED 0.863, PBLUC_HILL_SLOPE 2.29, PBLUC_R_SQUARED 0.755, read-out: LUCIFERASE INFECTION ASSAY - IC50): 0.251 µM
CCNc1ccc(S(=O)(=O)C(F)(F)F)cc1NC(=O)/C=C/c1ccc(OC)c(OC)c1	> 10		IC50 (HEPG2TOX_HILL_SLOPE 1.67, 1.94, HEPG2TOX_R_SQUARED 0.906, 0.973, PBLUC_HILL_SLOPE 2.77, PBLUC_R_SQUARED 0.318, read-out: LUCIFERASE INFECTION ASSAY - IC50): 7.07 µM
O=c1c(Cl)c(Cl)cnn1-c1ccc(F)c(Cl)c1	4.35		IC50 (HEPG2TOX_HILL_SLOPE 3.48, HEPG2TOX_R_SQUARED 0.867, PBLUC_HILL_SLOPE 16.6, PBLUC_R_SQUARED 0.498, read-out: LUCIFERASE INFECTION ASSAY - IC50): 3.81 µM
CCCc1oc2c(cc(NS(=O)(=O)c3ccc(Cl)cc3)c3ccccc32)c1C(=O)OCC	> 10		IC50 (PBLUC_HILL_SLOPE 2.19, PBLUC_R_SQUARED 0.549, read-out: LUCIFERASE INFECTION ASSAY - IC50): 5.77 µM
COc1ccc(-c2csc3nc(-c4cccnc4)nc(NCCN4CCOCC4)c23)cc1OC	> 10		IC50 (PBLUC_HILL_SLOPE 9.41, PBLUC_R_SQUARED 0.036, read-out: LUCIFERASE INFECTION ASSAY - IC50): 9.3 µM

SMILES	IC90 [µM]	IC50 [1] [µM]	also measured
Nc1c(C(=O)Nc2cccc(F)c2)sc2nc3c(cc12)N1CCC3CC1	> 8.96		IC50 (PBLUC_HILL_SLOPE 1.17, PBLUC_R_SQUARED 0.5, read-out: LUCIFERASE INFECTION ASSAY - IC50): 1.98 µM
Nc1cc(C(F)(F)F)cnc1Nc1ccc(Cl)cc1	> 11.5	> 11.5	
CS(=O)(=O)c1ccc(Oc2ccc(-n3ccnc3)cc2)c([N+](=O)[O-])c1	> 10	> 10	
O=S(=O)(Nc1cc(C(F)(F)F)cc(C(F)(F)F)c1)c1cc(Cl)ccc1Cl	> 7.53		IC50 (HEPG2TOX_HILL_SLOPE 2.59, HEPG2TOX_R_SQUARED 0.793, PBLUC_HILL_SLOPE 6.41, PBLUC_R_SQUARED 0.152, read-out: LUCIFERASE INFECTION ASSAY - IC50): 6.18 µM
COc1ccc(C(=O)N2CCN(c3ncnc4cc(Cl)ccc34)CC2)cc1	> 10		IC50 (HEPG2TOX_HILL_SLOPE 0.344, HEPG2TOX_R_SQUARED 0.575, PBLUC_HILL_SLOPE 18.9, PBLUC_R_SQUARED 0.0549, read-out: LUCIFERASE INFECTION ASSAY - IC50): 9.92 µM
S=C(Nc1ccccc1)N1CCCN(c2nc3ccc(Cl)cc3s2)CC1	3.16		IC50 (HEPG2TOX_HILL_SLOPE 1.54, HEPG2TOX_R_SQUARED 0.918, PBLUC_HILL_SLOPE 12.4, PBLUC_R_SQUARED 0.732, read-out: LUCIFERASE INFECTION ASSAY - IC50): 2.65 µM
Cc1nn(CC(=O)Nc2cc(C(F)(F)F)ccc2Oc2ccc(Br)cc2)c(=O)c(C#N)c1C	> 10	> 10	
CN(C)C(=O)c1ccc(Nc2cc3c(cn2)nc(-c2ccco2)n3C)cc1	> 10	> 10	
CC(C)(C)c1cc(C(c2ccccn2)N2CCCC2)cc(C(C)(C)C)c1O (centres undefined)	> 10	> 10	
COCCn1c(C)cc(C(=O)CN2C(=O)NC(C)(c3ccc(C(C)(C)C)cc3)C2=O)c1C (centres undefined)	> 10		IC50 (PBLUC_HILL_SLOPE 3.36, PBLUC_R_SQUARED 0.275, read-out: LUCIFERASE INFECTION ASSAY - IC50): 6.15 µM
CC(=O)Nc1ccc(S(=O)(=O)N2CCCc3cc(C)ccc32)cc1	> 10		IC50 (HEPG2TOX_HILL_SLOPE 2.72, HEPG2TOX_R_SQUARED 0.907, PBLUC_HILL_SLOPE 2.8, PBLUC_R_SQUARED 0.127, read-out: LUCIFERASE INFECTION ASSAY - IC50): 5.79 µM
COC(=O)c1c(NC(=O)c2ccco2)c2cc(NC(C)Cc3ccccc3F)cnc2n1C (centres undefined)	> 7.33		IC50 (HEPG2TOX_HILL_SLOPE 10.3, HEPG2TOX_R_SQUARED 0.591, PBLUC_HILL_SLOPE 7.35, PBLUC_R_SQUARED 0.509, read-out: LUCIFERASE INFECTION ASSAY - IC50): 6.19 µM
Cn1c(Nc2ccccc2)nc2cnc(Nc3ccc(Oc4ccccc4)cc3)cc21	> 10		IC50 (PBLUC_HILL_SLOPE 3.01, PBLUC_R_SQUARED 0.581, read-out: LUCIFERASE INFECTION ASSAY - IC50): 5.93 µM
Cc1ccc(C)c(C(=O)C(C)Sc2nnc(-c3cccc(Br)c3)o2)c1 (centres undefined)	9.4		IC50 (HEPG2TOX_HILL_SLOPE 2.02, HEPG2TOX_R_SQUARED 0.871, PBLUC_HILL_SLOPE 4.17, 0.287, PBLUC_R_SQUARED 0.527, 0.262, read-out: LUCIFERASE INFECTION ASSAY - IC50): 4.21 µM
Cc1cccc(NC(=O)CNC(=O)c2ccc3c(c2)C(=O)N(C)C3=O)c1C	> 10	> 10	
Cc1sc2ncnc(Sc3ccccc3C(=O)NNc3c(Cl)cc(Cl)cc3Cl)c2c1C	> 10	> 10	
COc1ccccc1CN1CCN2C(=O)[C@@H](Cc3ccc(O)cc3)NC(=O)[C@H]2C1	> 8.34		IC50 (PBLUC_HILL_SLOPE 1.8, PBLUC_R_SQUARED 0.229, read-out: LUCIFERASE INFECTION ASSAY - IC50): 4.45 µM
CCOc1ccc(C(=O)CCC(=O)O)cc1	> 14.8	> 14.8	
O=C(c1ccccc1)C(Sc1nnc(Cc2cccs2)n1CCc1ccccc1)c1ccccc1 (centres undefined)	> 10	> 10	
NNC(=O)c1cc2ccc3ccccc3c2s1	> 13.6	> 13.6	
CSCCC(C(=O)Oc1c(Cl)cc(Cl)c2ccc(C)nc12)N1C(=O)c2ccccc2C1=O (centres undefined)	> 10	> 10	
